Measurements as given in ChEMBL document CHEMBL1212824, “A type-II kinase inhibitor capable of inhibiting the T315I "gatekeeper" mutant of Bcr-Abl” (J Med Chem, 2010).
Blank lines part the entries; values can stand above or below the compound they belong to.

Experiments:
cells [1] = conditions: Mus musculus, BaF3
cells [2] = conditions: Mus musculus, BaF3; remark: listed apart in the source
cells [3] = conditions: Mus musculus, BaF3; remark: listed apart in the source
cells [4] = conditions: Mus musculus, BaF3; remark: listed apart in the source
[5] = target: Mitogen-activated protein kinase 8 (Homo sapiens) (UniProt P45983); test: Inhibition of human JNK1alpha1 at 10 uM
[6] = target: Mitogen-activated protein kinase 14 (Homo sapiens) (UniProt Q16539); test: Inhibition of human SAPK2a at 10 uM
Chain of Mitogen-activated protein kinase 14 (Homo sapiens) (Q16539 whole entry): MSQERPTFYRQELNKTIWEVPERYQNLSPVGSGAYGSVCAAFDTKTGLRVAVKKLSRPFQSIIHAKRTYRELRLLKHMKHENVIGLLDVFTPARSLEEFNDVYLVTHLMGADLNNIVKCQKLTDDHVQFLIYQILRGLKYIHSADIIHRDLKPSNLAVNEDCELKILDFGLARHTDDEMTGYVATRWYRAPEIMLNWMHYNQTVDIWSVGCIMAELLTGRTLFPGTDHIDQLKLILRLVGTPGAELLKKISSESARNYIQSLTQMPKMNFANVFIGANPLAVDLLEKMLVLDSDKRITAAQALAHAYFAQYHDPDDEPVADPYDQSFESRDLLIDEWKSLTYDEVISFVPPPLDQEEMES

[7] = target: Rho-associated protein kinase 2 (Homo sapiens) (UniProt O75116); test: Inhibition of human ROCK-2 at 10 uM
[8] = target: RAC-alpha serine/threonine-protein kinase (Homo sapiens) (UniProt P31749); test: Inhibition of human PKBalpha at 10 uM
[9] = target: Serine/threonine-protein kinase Sgk1 (Homo sapiens) (UniProt O00141); test: Inhibition of human SGK at 10 uM
[10] = target: Protein kinase C theta type (Homo sapiens) (UniProt Q04759); test: Inhibition of human PKCtheta at 10 uM
Chain of Protein kinase C theta type (Homo sapiens) (Q04759 whole entry, looked up): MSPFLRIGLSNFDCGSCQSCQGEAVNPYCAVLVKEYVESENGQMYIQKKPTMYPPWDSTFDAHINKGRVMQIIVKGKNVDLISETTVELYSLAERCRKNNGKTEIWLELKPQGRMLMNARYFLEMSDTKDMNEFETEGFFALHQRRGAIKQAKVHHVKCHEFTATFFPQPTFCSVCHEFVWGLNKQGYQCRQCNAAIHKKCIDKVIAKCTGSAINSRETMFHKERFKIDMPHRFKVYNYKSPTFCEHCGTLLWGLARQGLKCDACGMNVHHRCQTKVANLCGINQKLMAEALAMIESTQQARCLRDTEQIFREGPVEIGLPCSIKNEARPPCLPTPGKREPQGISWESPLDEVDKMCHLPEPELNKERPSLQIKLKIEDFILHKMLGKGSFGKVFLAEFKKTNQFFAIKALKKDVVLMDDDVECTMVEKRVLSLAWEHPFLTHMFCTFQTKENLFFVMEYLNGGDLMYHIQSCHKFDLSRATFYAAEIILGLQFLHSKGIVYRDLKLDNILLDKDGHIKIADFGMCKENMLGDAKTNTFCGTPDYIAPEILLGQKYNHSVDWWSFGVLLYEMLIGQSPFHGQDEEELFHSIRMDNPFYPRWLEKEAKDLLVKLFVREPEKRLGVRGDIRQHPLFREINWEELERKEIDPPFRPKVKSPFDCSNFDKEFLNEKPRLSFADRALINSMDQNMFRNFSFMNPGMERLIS

COLO 205 = test: cells; conditions: Homo sapiens
[11] = target: BDNF/NT-3 growth factors receptor (Homo sapiens) (UniProt Q16620); test: Inhibition of human TrkB at 10 uM
[12] = target: Tyrosine-protein kinase Lck (Homo sapiens) (UniProt P06239); test: Inhibition of human Lck at 10 uM
[13] = target: Mitogen-activated protein kinase 1 (Homo sapiens) (UniProt P28482); test: Inhibition of human MAPK1 at 10 uM
Homo sapiens = organism: Homo sapiens; conditions: 10 uM
[14] = target: Casein kinase II (Homo sapiens) (UniProt P67870+P68400+P19784); test: Inhibition of human CK2 at 10 uM; format: protein-complex assay
[15] = target: Mitogen-activated protein kinase 12 (Homo sapiens) (UniProt P53778); test: Inhibition of human SAPK3 at 10 uM
Chain of Mitogen-activated protein kinase 12 (Homo sapiens) (P53778 whole entry): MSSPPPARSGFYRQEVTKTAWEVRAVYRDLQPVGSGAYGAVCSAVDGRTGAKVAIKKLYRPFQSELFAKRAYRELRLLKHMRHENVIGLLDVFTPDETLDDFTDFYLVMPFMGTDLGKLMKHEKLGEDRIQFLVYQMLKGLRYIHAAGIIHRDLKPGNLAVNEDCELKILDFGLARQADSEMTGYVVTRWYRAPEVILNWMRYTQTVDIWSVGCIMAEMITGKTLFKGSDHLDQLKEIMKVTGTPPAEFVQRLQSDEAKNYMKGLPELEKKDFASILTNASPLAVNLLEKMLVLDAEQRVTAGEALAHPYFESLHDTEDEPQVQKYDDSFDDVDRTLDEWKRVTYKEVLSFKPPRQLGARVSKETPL

in vivo [16] = conditions: BALB/c, mouse, iv, 5 mg/kg
[17] = target: Cytoplasmic tyrosine-protein kinase BMX (Homo sapiens) (UniProt P51813); test: Inhibition of human Bmx at 10 uM
Mus musculus [18] = test: Tlast in BALB/c mouse at 5 mg/kg, iv; format: ADME, organism-based; set-up: dose 5 mg/kg, route intravenous; conditions: in vivo
[19] = target: Inhibitor of nuclear factor kappa-B kinase subunit alpha (Homo sapiens) (UniProt O15111); test: Inhibition of human IKKalpha at 10 uM
Chain of Inhibitor of nuclear factor kappa-B kinase subunit alpha (Homo sapiens) (O15111 whole entry): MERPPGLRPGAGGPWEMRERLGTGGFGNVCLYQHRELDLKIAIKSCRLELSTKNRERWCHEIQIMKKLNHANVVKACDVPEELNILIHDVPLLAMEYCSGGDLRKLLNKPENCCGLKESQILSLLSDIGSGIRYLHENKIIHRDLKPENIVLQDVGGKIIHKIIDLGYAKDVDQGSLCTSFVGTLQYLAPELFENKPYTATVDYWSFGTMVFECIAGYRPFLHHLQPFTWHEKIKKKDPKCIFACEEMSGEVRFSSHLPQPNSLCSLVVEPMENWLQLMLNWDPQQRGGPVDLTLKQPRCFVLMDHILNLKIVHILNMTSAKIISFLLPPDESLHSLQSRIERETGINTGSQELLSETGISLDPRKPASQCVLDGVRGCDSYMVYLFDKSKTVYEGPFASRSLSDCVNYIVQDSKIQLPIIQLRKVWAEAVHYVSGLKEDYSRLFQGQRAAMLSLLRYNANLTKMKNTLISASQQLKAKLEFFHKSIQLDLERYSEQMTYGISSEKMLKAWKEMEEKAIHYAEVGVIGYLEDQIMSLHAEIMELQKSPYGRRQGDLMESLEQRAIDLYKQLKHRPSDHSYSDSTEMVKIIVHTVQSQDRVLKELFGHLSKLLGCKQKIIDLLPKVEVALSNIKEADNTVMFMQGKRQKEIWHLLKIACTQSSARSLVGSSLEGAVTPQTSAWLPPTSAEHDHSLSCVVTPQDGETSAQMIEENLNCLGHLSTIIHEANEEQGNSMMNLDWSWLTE

[20] = target: Glycogen synthase kinase-3 (Homo sapiens) (UniProt P49840+P49841); test: Inhibition of human GSK3ss at 10 uM; format: protein assay
[21] = target: Serine/threonine-protein kinase Chk2 (Homo sapiens) (UniProt O96017); test: Inhibition of human CHK2 at 10 uM
[22] = target: Mitogen-activated protein kinase 11 (Homo sapiens) (UniProt Q15759); test: Inhibition of human SAPK2b at 10 uM
[23] = target: Tyrosine-protein kinase receptor UFO (Homo sapiens) (UniProt P30530); test: Inhibition of human Axl at 10 uM
[24] = target: Tyrosine-protein kinase ZAP-70 (Homo sapiens) (UniProt P43403); test: Inhibition of human ZAP-70 at 10 uM
[25] = target: RAF proto-oncogene serine/threonine-protein kinase (Homo sapiens) (UniProt P04049); test: Inhibition of human c-RAF at 10 uM
Chain of RAF proto-oncogene serine/threonine-protein kinase (Homo sapiens) (P04049 whole entry): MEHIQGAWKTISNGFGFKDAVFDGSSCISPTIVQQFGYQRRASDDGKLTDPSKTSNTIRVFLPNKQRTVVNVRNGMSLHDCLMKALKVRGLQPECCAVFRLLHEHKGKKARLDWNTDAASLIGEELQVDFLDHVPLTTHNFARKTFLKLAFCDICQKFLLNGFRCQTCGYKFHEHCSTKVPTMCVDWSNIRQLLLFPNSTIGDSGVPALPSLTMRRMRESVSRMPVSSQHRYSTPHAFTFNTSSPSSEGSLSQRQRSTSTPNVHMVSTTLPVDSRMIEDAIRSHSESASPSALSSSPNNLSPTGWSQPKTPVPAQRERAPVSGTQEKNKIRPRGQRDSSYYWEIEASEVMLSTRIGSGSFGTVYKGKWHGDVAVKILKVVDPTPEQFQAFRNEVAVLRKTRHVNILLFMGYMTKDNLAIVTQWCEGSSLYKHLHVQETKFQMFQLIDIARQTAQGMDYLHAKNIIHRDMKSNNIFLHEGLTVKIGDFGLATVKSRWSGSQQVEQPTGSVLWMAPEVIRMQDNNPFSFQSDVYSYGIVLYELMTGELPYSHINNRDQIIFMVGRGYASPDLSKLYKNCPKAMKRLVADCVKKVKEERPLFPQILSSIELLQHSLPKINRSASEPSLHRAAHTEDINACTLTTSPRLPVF

in vivo [26] = conditions: BALB/c, mouse, iv, 5 mg/kg; remark: listed apart in the source
in vivo [27] = conditions: BALB/c, mouse, iv, 5 mg/kg; remark: listed apart in the source
[28] = target: Tyrosine-protein kinase CSK (Homo sapiens) (UniProt P41240); test: Inhibition of human CSK at 10 uM
[29] = target: Serine/threonine-protein kinase D2 (Homo sapiens) (UniProt Q9BZL6); test: Inhibition of human PKD2 at 10 uM
SW-620 = test: cells; conditions: Homo sapiens
[30] = target: Dual specificity mitogen-activated protein kinase kinase 6 (Homo sapiens) (UniProt P52564); test: Inhibition of human MKK6 at 10 uM
[31] = target: Tyrosine-protein kinase Fes/Fps (Homo sapiens) (UniProt P07332); test: Inhibition of human Fes at 10 uM
cells [32] = conditions: Homo sapiens, HEK-293T
[33] = target: Platelet-derived growth factor receptor alpha (Homo sapiens) (UniProt P16234); test: Inhibition of human PDGFRalpha at 10 uM
[34] = target: Receptor-type tyrosine-protein kinase FLT3 (Homo sapiens) (UniProt P36888); test: Inhibition of human Flt3 at 10 uM
[35] = target: Fibroblast growth factor receptor 3 (Homo sapiens) (UniProt P22607); test: Inhibition of human FGFR3 at 10 uM
[36] = target: Ribosomal protein S6 kinase beta-1 (Homo sapiens) (UniProt P23443); test: Inhibition of human p70S6K at 10 uM
Mus musculus [37] = test: Tlast in BALB/c mouse at 20 mg/kg, po; format: ADME, organism-based; set-up: dose 20 mg/kg, route oral; conditions: in vivo
cells [38] = conditions: Homo sapiens, U-87 MG
[39] = target: Calcium/calmodulin-dependent protein kinase type IV (Homo sapiens) (UniProt Q16566); test: Inhibition of human CaMK4 at 10 uM
[40] = target: Tyrosine-protein kinase SYK (Homo sapiens) (UniProt P43405); test: Inhibition of human Syk at 10 uM
[41] = target: Ribosomal protein S6 kinase alpha-1 (Homo sapiens) (UniProt Q15418); test: Inhibition of human Rsk1 at 10 uM
[42] = target: MAP kinase-activated protein kinase 2 (Homo sapiens) (UniProt P49137); test: Inhibition of human MAPKAP-K2 at 10 uM
Chain of MAP kinase-activated protein kinase 2 (Homo sapiens) (P49137 whole entry, looked up): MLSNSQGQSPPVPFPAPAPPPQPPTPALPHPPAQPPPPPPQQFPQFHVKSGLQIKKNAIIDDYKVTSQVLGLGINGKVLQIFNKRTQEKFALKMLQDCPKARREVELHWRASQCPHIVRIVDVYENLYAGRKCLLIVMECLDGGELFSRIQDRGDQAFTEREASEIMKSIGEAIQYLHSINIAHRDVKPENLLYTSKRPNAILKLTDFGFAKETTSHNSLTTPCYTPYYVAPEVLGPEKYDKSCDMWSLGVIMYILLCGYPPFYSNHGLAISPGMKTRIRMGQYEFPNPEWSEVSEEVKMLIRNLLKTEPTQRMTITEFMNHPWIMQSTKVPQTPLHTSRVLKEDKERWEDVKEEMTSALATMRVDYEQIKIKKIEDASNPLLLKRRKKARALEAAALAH

Mus musculus [43] = organism: Mus musculus; conditions: in vivo, po, 20 mg/kg
[44] = target: Serine/threonine-protein kinase PAK 2 (Homo sapiens) (UniProt Q13177); test: Inhibition of human PAK2 at 10 uM
Chain of Serine/threonine-protein kinase PAK 2 (Homo sapiens) (Q13177 whole entry): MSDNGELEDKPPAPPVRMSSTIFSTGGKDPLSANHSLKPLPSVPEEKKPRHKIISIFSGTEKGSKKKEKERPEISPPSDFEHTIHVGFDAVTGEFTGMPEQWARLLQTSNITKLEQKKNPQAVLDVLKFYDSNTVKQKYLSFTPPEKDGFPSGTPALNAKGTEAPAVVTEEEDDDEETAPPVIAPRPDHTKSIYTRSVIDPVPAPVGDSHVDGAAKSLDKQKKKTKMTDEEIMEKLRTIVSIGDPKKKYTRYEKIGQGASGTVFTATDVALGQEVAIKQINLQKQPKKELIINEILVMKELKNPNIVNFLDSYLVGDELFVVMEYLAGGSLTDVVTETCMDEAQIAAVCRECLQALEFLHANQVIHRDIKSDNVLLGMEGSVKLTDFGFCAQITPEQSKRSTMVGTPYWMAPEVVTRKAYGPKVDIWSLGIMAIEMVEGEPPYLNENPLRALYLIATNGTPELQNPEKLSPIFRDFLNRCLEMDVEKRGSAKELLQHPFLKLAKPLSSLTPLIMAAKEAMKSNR

[45] = target: 3-phosphoinositide-dependent protein kinase 1 (Homo sapiens) (UniProt O15530); test: Inhibition of human PDK1 at 10 uM
Mus musculus [46] = organism: Mus musculus; conditions: 10 uM
[47] = Tmax in BALB/c mouse at 5 mg/kg, iv; format: ADME, organism-based; set-up: dose 5 mg/kg, route intravenous; conditions: in vivo
[48] = target: Cyclin-dependent kinase 1/cyclin B1 (Homo sapiens) (UniProt P06493+P14635); test: Inhibition of human CDK1/cyclinB at 10 uM; format: protein-complex assay
Chain of Cyclin-dependent kinase 1/cyclin B1 (Homo sapiens) (P06493 whole entry, looked up): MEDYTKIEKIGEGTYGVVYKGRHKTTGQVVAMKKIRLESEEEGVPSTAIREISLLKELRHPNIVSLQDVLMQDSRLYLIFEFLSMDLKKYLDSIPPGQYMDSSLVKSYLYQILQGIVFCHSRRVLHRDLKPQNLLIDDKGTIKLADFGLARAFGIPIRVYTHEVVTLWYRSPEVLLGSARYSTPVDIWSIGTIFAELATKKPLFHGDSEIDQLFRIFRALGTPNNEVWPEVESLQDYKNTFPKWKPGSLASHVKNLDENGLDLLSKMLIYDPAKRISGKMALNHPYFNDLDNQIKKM
Chain of Cyclin-dependent kinase 1/cyclin B1 (Homo sapiens) (P14635 whole entry, looked up): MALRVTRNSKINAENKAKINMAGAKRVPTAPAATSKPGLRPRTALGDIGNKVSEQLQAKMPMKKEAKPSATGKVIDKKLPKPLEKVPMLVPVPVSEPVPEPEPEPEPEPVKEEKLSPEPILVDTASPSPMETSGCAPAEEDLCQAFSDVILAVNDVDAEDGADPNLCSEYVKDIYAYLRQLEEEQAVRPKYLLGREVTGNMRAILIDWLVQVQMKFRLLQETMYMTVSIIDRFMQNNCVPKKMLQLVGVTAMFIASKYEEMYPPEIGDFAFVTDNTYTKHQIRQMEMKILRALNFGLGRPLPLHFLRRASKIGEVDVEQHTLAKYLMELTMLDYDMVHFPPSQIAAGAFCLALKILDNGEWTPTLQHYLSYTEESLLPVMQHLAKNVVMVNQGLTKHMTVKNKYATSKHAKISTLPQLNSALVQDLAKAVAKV

[49] = target: Protein kinase C alpha type (Homo sapiens) (UniProt P17252); test: Inhibition of human PKCalpha at 10 uM
[50] = target: Insulin receptor (Homo sapiens) (UniProt P06213); test: Inhibition of human IR at 10 uM
[51] = target: Aurora kinase A (Homo sapiens) (UniProt O14965); test: Inhibition of human Aurora A at 10 uM
Chain of Aurora kinase A (Homo sapiens) (O14965 whole entry): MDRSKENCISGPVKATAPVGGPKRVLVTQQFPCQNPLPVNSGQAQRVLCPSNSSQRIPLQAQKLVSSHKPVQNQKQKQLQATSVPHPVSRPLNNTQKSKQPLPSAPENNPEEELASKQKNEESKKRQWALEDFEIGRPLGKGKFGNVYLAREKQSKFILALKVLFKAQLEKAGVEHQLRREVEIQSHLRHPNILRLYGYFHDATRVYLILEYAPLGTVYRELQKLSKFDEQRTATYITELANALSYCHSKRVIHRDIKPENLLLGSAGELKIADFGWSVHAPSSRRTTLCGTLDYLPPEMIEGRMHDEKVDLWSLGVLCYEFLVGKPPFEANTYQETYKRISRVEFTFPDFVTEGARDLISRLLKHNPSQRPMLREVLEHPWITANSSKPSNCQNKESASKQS

[52] = target: Dual specificity mitogen-activated protein kinase kinase 1 (Homo sapiens) (UniProt Q02750); test: Inhibition of human MEK1 at 10 uM
[53] = target: Mitogen-activated protein kinase 9 (Homo sapiens) (UniProt P45984); test: Inhibition of human JNK2alpha2 at 10 uM
cells [54] = conditions: Mus musculus, BaF3; remark: listed apart in the source
cells [55] = conditions: Mus musculus, BaF3; remark: listed apart in the source
cells [56] = conditions: Mus musculus, BaF3; remark: listed apart in the source
cells [57] = conditions: Mus musculus, BaF3; remark: listed apart in the source

IC50 (cells [1]): 19 nM
IC50 (cells [2]): < 5 nM
IC50 (cells [3]): < 5 nM
IC50 (cells [4]): < 5 nM
SMILES: Cc1ccc(NC(=O)c2cccc(C(F)(F)F)c2)cc1N1Cc2cnc(Nc3ccccc3)nc2N(C)C1=O

inhibition [5]: 97%
inhibition [6]: 95%
inhibition [7]: 2%
inhibition [8]: 7%
inhibition [9]: 0%
inhibition [10]: 22%
IC50 (COLO 205): 5 nM
inhibition [11]: 100%
inhibition [12]: 99%
inhibition [13]: 68%
inhibition (Homo sapiens): 49%
inhibition [14]: 6%
inhibition [15]: 35%
Cmax (in vivo [16]): 11.7 µM
inhibition [17]: 98%
Tlast (Mus musculus [18]): 24 h
inhibition [19]: 69%
inhibition [20]: 59%
inhibition [21]: 12%
inhibition [22]: 98%
inhibition [23]: 69%
inhibition [24]: 6%
inhibition [25]: 100%
half-life (in vivo [26]): 3.8 h
Vd (in vivo [27]): 1.12 L/kg
inhibition [28]: 100%
inhibition [29]: 77%
IC50 (SW-620): 1 nM
inhibition [30]: 100%
inhibition [31]: 98%
IC50 (cells [32]): > 10000 nM
inhibition [33]: 62%
inhibition [34]: 69%
inhibition [35]: 100%
inhibition [36]: 92%
Tlast (Mus musculus [37]): 24 h
IC50 (cells [38]): 5960 nM
inhibition [39]: 0%
inhibition [40]: 98%
inhibition [41]: 95%
inhibition [42]: 0%
Cmax (Mus musculus [43]): 3.62 µM
inhibition [44]: 45%
inhibition [45]: 0%
inhibition (Mus musculus [46]): 98%
Tmax [47]: 1.8 min
inhibition [48]: 3%
inhibition [49]: 51%
inhibition [50]: 89%
inhibition [51]: 31%
inhibition [52]: 58%
inhibition [53]: 99%
SMILES: Cc1ccc(Nc2ncc3c(n2)N(C)C(=O)N(c2cc(NC(=O)c4cccc(C(F)(F)F)c4)ccc2C)C3)cn1

IC50 (cells [1]): < 5 nM
IC50 (cells [2]): < 5 nM
IC50 (cells [54]): < 5 nM
IC50 (cells [55]): < 5 nM
IC50 (cells [3]): < 5 nM
IC50 (cells [4]): < 5 nM
IC50 (cells [56]): < 5 nM
SMILES: Cc1ccc(NC(=O)c2cccc(C(F)(F)F)c2)cc1N1Cc2cnc(N)nc2N(C)C1=O

IC50 (cells [1]): 16 nM
IC50 (cells [2]): < 5 nM
IC50 (cells [55]): 13 nM
IC50 (cells [3]): 15 nM
IC50 (cells [57]): < 5 nM
IC50 (cells [4]): < 5 nM
IC50 (cells [56]): < 5 nM
SMILES: CNc1ncc2c(n1)N(C)C(=O)N(c1cc(NC(=O)c3cc(-n4cnc(C)c4)cc(C(F)(F)F)c3)ccc1C)C2
